Measured values published in publication PMC3914206.

How the values were obtained:
Type in all cases: binding
panel of 442 kinases [1] = biological target: T1, panel of 442 kinases (Homo sapiens, UniProt P10721, V559D); details: Compound Concentration 10 µM
T1 construct: purchased KINOMEscan
Source text: (§1) We assessed the selectivity of members of this scaffold using the KINOMEscan methodology across a near comprehensive panel of 442 kinases [[18,27]].

panel of 442 kinases [2] = biological target: T2, panel of 442 kinases (Homo sapiens, UniProt P42336, H1047Y); details: Compound Concentration 10 µM
T2 construct: purchased KINOMEscan
T2 sequence (P42336 whole entry H1047Y): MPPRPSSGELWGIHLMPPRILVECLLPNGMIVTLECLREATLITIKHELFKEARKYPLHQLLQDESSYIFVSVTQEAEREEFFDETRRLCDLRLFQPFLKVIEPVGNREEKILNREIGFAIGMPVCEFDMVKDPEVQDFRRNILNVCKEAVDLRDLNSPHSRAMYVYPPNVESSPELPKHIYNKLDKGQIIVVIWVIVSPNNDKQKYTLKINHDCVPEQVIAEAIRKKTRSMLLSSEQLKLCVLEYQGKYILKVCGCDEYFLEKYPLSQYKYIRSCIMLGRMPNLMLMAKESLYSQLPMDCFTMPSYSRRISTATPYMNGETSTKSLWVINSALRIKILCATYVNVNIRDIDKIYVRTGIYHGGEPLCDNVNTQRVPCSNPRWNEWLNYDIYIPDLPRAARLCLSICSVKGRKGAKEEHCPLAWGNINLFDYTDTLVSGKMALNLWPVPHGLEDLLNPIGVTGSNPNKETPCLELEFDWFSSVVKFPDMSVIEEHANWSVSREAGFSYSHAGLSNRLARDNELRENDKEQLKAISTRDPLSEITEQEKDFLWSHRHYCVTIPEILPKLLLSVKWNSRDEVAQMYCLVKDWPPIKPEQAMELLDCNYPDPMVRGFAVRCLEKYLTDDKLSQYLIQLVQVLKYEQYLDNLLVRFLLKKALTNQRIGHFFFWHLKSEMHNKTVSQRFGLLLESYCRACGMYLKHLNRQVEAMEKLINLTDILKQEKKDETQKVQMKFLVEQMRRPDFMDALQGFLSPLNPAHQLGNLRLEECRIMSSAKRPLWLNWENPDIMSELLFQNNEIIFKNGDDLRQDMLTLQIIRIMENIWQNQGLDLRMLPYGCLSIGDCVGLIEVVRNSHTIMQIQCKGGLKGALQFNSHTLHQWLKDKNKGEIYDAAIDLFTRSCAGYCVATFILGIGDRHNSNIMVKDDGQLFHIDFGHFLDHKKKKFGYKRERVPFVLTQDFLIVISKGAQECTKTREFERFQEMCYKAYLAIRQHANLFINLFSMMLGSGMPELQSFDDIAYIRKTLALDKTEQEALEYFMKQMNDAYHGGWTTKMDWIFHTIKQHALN
Source text: as §1

panel of 442 kinases [3] = biological target: T3, panel of 442 kinases (Homo sapiens, UniProt P37173); details: kinase TGFBR2; compound concentration 10 µM
T3 construct: purchased KINOMEscan
T3 sequence (P37173 23-567): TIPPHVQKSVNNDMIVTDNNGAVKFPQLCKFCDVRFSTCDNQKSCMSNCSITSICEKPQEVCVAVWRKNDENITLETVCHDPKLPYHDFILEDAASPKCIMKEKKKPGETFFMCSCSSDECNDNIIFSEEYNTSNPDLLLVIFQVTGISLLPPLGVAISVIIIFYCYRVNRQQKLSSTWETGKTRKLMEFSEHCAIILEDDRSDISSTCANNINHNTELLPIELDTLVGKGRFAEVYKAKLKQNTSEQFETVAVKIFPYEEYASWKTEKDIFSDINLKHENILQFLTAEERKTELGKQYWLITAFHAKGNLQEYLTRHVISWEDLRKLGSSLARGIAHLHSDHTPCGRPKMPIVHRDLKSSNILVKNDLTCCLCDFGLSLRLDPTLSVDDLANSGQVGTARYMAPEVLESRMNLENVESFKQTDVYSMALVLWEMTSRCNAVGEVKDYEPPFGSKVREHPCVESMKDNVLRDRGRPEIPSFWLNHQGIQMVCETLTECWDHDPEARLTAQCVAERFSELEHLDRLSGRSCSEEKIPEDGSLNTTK
Source text: as §1

panel of 442 kinases [4] = biological target: T4, panel of 442 kinases (Homo sapiens, UniProt Q8IY84); details: Compound Concentration 10 µM
T4 construct: purchased KINOMEscan
T4 sequence (Q8IY84 whole entry): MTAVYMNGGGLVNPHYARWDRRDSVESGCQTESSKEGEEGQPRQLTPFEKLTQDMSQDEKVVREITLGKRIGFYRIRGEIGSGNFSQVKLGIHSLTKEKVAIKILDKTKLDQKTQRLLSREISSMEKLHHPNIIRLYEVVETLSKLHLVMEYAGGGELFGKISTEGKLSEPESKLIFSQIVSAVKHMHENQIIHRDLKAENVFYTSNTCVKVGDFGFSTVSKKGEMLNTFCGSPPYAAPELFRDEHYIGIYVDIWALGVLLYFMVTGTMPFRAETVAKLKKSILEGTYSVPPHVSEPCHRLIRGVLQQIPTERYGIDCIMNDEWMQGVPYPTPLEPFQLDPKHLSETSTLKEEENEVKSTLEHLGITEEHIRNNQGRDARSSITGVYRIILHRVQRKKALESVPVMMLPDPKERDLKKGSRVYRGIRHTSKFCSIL
Source text: as §1

T1 sequence (P10721 26-976 V559D): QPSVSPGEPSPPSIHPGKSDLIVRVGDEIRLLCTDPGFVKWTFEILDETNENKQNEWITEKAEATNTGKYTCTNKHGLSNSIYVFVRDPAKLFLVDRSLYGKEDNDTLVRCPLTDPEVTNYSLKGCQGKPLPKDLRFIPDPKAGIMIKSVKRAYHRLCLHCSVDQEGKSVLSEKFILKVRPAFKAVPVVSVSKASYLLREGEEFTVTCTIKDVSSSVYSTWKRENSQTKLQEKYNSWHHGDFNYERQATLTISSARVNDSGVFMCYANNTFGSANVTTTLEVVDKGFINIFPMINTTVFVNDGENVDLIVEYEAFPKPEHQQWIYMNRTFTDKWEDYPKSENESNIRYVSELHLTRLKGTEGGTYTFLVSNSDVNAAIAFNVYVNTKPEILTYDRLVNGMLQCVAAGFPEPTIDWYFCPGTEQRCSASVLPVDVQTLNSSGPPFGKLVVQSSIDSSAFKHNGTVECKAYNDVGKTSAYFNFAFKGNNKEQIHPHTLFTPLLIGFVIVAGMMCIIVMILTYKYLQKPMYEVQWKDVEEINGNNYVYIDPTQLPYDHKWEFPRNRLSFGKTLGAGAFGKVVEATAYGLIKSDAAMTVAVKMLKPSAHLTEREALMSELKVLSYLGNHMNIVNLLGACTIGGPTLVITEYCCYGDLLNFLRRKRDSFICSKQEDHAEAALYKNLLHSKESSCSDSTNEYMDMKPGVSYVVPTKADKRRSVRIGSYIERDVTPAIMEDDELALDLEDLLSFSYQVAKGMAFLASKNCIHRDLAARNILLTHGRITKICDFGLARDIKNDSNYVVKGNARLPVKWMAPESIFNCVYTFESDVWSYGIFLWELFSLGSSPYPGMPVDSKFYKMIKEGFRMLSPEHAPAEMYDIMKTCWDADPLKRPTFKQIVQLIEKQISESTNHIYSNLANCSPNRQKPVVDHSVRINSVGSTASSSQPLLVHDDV

Row | Structure (SMILES) | KINOMEscan: KIT(V559D) (panel of 442 kinases [1]) | KINOMEscan: PIK3CA(H1047Y) (panel of 442 kinases [2]) | % Ctrl, TGFBR2 (panel of 442 kinases [3]) [% Ctrl] | KINOMEscan: NIM1 (panel of 442 kinases [4])
1 | COc1cc(C(=O)N2CCC(N3CCN(C)CC3)CC2)ccc1Nc1ncc2c(n1)N(C)c1ccccc1C(=O)N2C [15 (LRRK2-IN-1)] | 100 | 71 | 100 | 100
2 | COc1cc(C(=O)N2CCC(N3CCN(C)CC3)CC2)ccc1Nc1ncc2c(n1)N1CCc3cccc(c31)C(=O)N2C [Compound 24] |  | 68 | 100 | 
3 | COc1cc(C(=O)N2CCC(N3CCN(C)CC3)CC2)ccc1Nc1ncc2c(n1)N(C1CCCC1)c1ccccc1C(=O)N2C [Compound 25, 11-cyclopentyl-2-((2-methoxy-4-(4-(4-methylpiperazin-1-yl)piperidine-1-carbonyl)phenyl)amino)-5-methyl-5H-benzo[e]pyrimido[5,4-b][1,4]diazepin-6(11H)-one] | 96 | 100 | 100 | 100
4 | CCOc1cc(C(=O)N2CCC(N3CCN(C)CC3)CC2)ccc1Nc1ncc2c(n1)N(C1CCCC1)c1ccccc1C(=O)N2C [Compound 26] | 100 | 76 | 100 | 100
